Reference: ChEMBL document CHEMBL4152332, “Discovery and synthesis of novel magnolol derivatives with potent anticancer activity in non-small cell lung cancer” (Eur J Med Chem, 2018)

What was measured:
[1] = tested on: Mus musculus; experiment: Toxicity in Balb/c mouse xenografted with human NCI-H1975 cells assessed as effect on heart size at 5 to 20 mg/kg, iv treated every 2 days for 9 days; format: organism-based; details: in vivo
[2] = tested on: Mus musculus; experiment: Toxicity in Balb/c mouse xenografted with human NCI-H1975 cells assessed as effect on kidney size at 5 to 20 mg/kg, iv treated every 2 days for 9 days; format: organism-based; details: in vivo
[3] = tested on: Mus musculus; experiment: Toxicity in Balb/c mouse xenografted with human NCI-H1975 cells assessed as change in body weight at 5 mg/kg, iv treated every 2 days for 9 days and measured every 2 days after compound dosing ( Rvb = 2.89%); format: organism-based; details: in vivo
[4] = tested on: NCI-H1975; experiment: Induction of apoptosis in human NCI-H1975 cells assessed as late apoptotic cells at 10 uM after 48 hrs by annexin V/FITC-propidium iodide staining-based flow cytometric method ( Rvb = 10.4%); format: functional
[5] = tested on: NCI-H1975; experiment: Induction of apoptosis in human NCI-H1975 cells assessed as late apoptotic cells at 5 uM after 48 hrs by annexin V/FITC-propidium iodide staining-based flow cytometric method ( Rvb = 10.4%); format: functional
[6] = tested on: NCI-H441; experiment: Antiproliferative activity against human H441 cells after 72 hrs by MTT assay; format: functional, cell-based; details: NCI-H441, 72 h
[7] = tested on: NCI-H1975; experiment: Induction of apoptosis in human NCI-H1975 cells assessed as increase in cleaved caspase-3 level after 48 hrs by Western blot analysis; format: functional, cell-based
[8] = tested on: Mus musculus; experiment: Toxicity in Balb/c mouse xenografted with human NCI-H1975 cells assessed as effect on heart morphology at 5 to 20 mg/kg, iv treated every 2 days for 9 days; format: organism-based; details: in vivo
[9] = tested on: NCI-H358; experiment: Antiproliferative activity against human NCI-H358 cells after 72 hrs by MTT assay; format: functional, cell-based; details: NCI-H358, 72 h
[10] = tested on: NCI-H1975; experiment: Antitumor activity against human NCI-H1975 cells xenografted in Balb/c mouse assessed as change in tumor mass at 5 mg/kg, iv treated every 2 days for 9 days and measured every 2 days after compound dosing relative to control; format: functional
[11] = tested on: HCC827; experiment: Antiproliferative activity against human HCC827 cells after 72 hrs by MTT assay; format: functional, cell-based; details: HCC827, 72 h
[12] = tested on: NCI-H1975; experiment: Induction of apoptosis in human NCI-H1975 cells assessed as late apoptotic cells at 20 uM after 48 hrs by annexin V/FITC-propidium iodide staining-based flow cytometric method ( Rvb = 10.4%); format: functional
[13] = tested on: Mus musculus; experiment: Toxicity in Balb/c mouse xenografted with human NCI-H1975 cells assessed as change in body weight at 10 mg/kg, iv treated every 2 days for 9 days and measured every 2 days after compound dosing ( Rvb = 2.89%); format: organism-based; details: in vivo
[14] = tested on: NCI-H1975; experiment: Induction of apoptosis in human NCI-H1975 cells assessed as decrease in cyclin E level after 24 hrs by Western blot analysis; format: functional, cell-based
[15] = tested on: NCI-H1975; experiment: Induction of apoptosis in human NCI-H1975 cells assessed as necrotic cells at 20 uM after 48 hrs by annexin V/FITC-propidium iodide staining-based flow cytometric method ( Rvb = 1.01%); format: functional
[16] = tested on: NCI-H1975; experiment: Potency index, ratio of IC50 for magnolol to IC50 for test compound for antiproliferative activity against human NCI-H1975 cells after 72 hrs by MTT assay; format: functional
[17] = tested on: NCI-H1975; experiment: Induction of apoptosis in human NCI-H1975 cells assessed as early apoptotic cells at 20 uM after 48 hrs by annexin V/FITC-propidium iodide staining-based flow cytometric method ( Rvb = 6.09%); format: functional
[18] = tested on: NCI-H460; experiment: Potency index, ratio of IC50 for honokiol to IC50 for test compound for antiproliferative activity against human H460 cells after 72 hrs by MTT assay; format: functional
[19] = tested on: NCI-H1975; experiment: Antitumor activity against human NCI-H1975 cells xenografted in Balb/c mouse assessed as change in tumor mass at 10 mg/kg, po qd treated for 18 days and measured every 2 days after compound dosing relative to control; format: functional
[20] = tested on: NCI-H1975; experiment: Cell cycle arrest in human NCI-H1975 cells assessed as reduction in accumulation at S phase after 24 hrs by propidium iodide staining-based flow cytometric analysis; format: functional
[21] = tested on: NCI-H1975; experiment: Cell cycle arrest in human NCI-H1975 cells assessed as accumulation at G0/G1 phase at 20 uM after 24 hrs by propidium iodide staining-based flow cytometric analysis (reference value: 56.11%); format: functional
[22] = tested on: NCI-H1975; experiment: Induction of apoptosis in human NCI-H1975 cells assessed as necrotic cells at 5 uM after 48 hrs by annexin V/FITC-propidium iodide staining-based flow cytometric method ( Rvb = 1.01%); format: functional
[23] = tested on: Mus musculus; experiment: Toxicity in Balb/c mouse xenografted with human NCI-H1975 cells assessed as change in body weight at 20 mg/kg, iv treated every 2 days for 9 days and measured every 2 days after compound dosing ( Rvb = 2.89%); format: organism-based; details: in vivo
[24] = tested on: NCI-H1975; experiment: Induction of apoptosis in human NCI-H1975 cells assessed as early apoptotic cells at 10 uM after 48 hrs by annexin V/FITC-propidium iodide staining-based flow cytometric method ( Rvb = 6.09%); format: functional
[25] = tested on: Mus musculus; experiment: Toxicity in Balb/c mouse xenografted with human NCI-H1975 cells assessed as induction of vascular irritation at 5 to 20 mg/kg, iv treated every 2 days for 9 days; format: organism-based; details: in vivo
[26] = tested on: NCI-H1975; experiment: Cell cycle arrest in human NCI-H1975 cells assessed as reduction in accumulation at G2/M phase after 24 hrs by propidium iodide staining-based flow cytometric analysis; format: functional
[27] = tested on: NCI-H1975; experiment: Antitumor activity against human NCI-H1975 cells xenografted in Balb/c mouse assessed as change in tumor mass at 30 mg/kg, po qd treated for 18 days and measured every 2 days after compound dosing relative to control; format: functional
[28] = tested on: Mus musculus; experiment: Toxicity in Balb/c mouse xenografted with human NCI-H1975 cells assessed as change in body weight at 100 mg/kg, po qd treated for 18 days and measured every 2 days after compound dosing ( Rvb = 2.89%); format: organism-based; details: in vivo
[29] = tested on: Mus musculus; experiment: Toxicity in Balb/c mouse xenografted with human NCI-H1975 cells assessed as change in body weight at 30 mg/kg, po qd treated for 18 days and measured every 2 days after compound dosing ( Rvb = 2.89%); format: organism-based; details: in vivo
[30] = tested on: NCI-H1975; experiment: Induction of apoptosis in human NCI-H1975 cells assessed as early apoptotic cells at 5 uM after 48 hrs by annexin V/FITC-propidium iodide staining-based flow cytometric method ( Rvb = 6.09%); format: functional
[31] = tested on: Mus musculus; experiment: Toxicity in Balb/c mouse xenografted with human NCI-H1975 cells assessed as change in body weight at 10 mg/kg, po qd treated for 18 days and measured every 2 days after compound dosing ( Rvb = 2.89%); format: organism-based; details: in vivo
[32] = tested on: NCI-H1975; experiment: Induction of apoptosis in human NCI-H1975 cells assessed as viable cells at 5 uM after 48 hrs by annexin V/FITC-propidium iodide staining-based flow cytometric method ( Rvb = 82.5%); format: functional; details: NCI-H1975, 48 h, read-out: Activity
[33] = tested on: NCI-H1975; experiment: Cell cycle arrest in human NCI-H1975 cells assessed as accumulation at G2/M phase at 10 uM after 24 hrs by propidium iodide staining-based flow cytometric analysis (reference value: 20.11%); format: functional
[34] = tested on: NCI-H1975; experiment: Induction of apoptosis in human NCI-H1975 cells assessed as decrease in Cdk2 level after 24 hrs by Western blot analysis; format: functional, cell-based

C=CCc1ccc(O)c(-c2cc(CC=C)cc(CN3CCC(N)CC3)c2O)c1
Activity [1]: Non-Toxic
Activity [2]: Non-Toxic
Activity [3]: 4.4%
Activity [4]: 32.8%
Activity [5]: 26.3%
IC50 [6]: 5.63 µM
Activity [7]: Dose-dependent effect
Activity [8]: Non-Toxic
IC50 [9]: 7.43 µM
Activity [10]: 49.2%
IC50 [11]: 5.01 µM
Activity [12]: 49.1%
Activity [13]: 8.89%
Activity [14]: Dose-dependent effect
Activity [15]: 0.35%
Ratio IC50 [16]: 8
Activity [17]: 46.8%
Ratio IC50 [18]: 4
Activity [19]: 46.3%
Activity [20]: Dose-dependent effect
Activity [21]: 79.45%
Activity [22]: 0.52%
Activity [23]: 8.23%
Activity [24]: 10.1%
Activity [25]: Non-Toxic
Activity [26]: Dose-dependent effect
Activity [27]: 59.3%
Activity [28]: -5.72%
Activity [29]: 8.85%
Activity [30]: 6.68%
Activity [31]: 13.3%
viability at 5 µM [32]: 66.5%
Activity [33]: 12.73%
Activity [34]: Dose-dependent effect
